Results on 5 molecules are retold here after patent publication US11617735B2, “Purified forms of rofecoxib, methods of manufacture and use” (Tremeau Pharmaceuticals, Inc., priority 2018, dated 2023).

One data set relates to bacterial mutagenicity. As to conditions: cited from earlier work.
A short description of data set [1]: Solubility in solvents by UHPLC assay. The format is physicochemical. The text has this: The tool called “Early phase solvent selection: solubility prediction” was used. This tool allows to predict the solubility of material in a large scope of solvents, knowing the solubility in some of them. The solubility can be also predicted in function of temperature, and for solvent combinations. The solubility prediction is based on similar structures moieties between solvents. Therefore, the measurement of solubility in 16 different solvents allowed for the estimate of solubility in up to 106 solvents. […] Solubilities were obtained by UHPLC assay. Among these 106 solvents, 27 seemed interesting as solvent or antisolvent. DMF. NMP and DMSO are the solvents in which rofecoxib (RXB-201) is the most soluble (>100 g/L at 30° C.). Nevertheless, ICH Q3C, DMF and NMP were less suitable than DMSO which remains the best option. Thus, no changes were implemented regarding the solvent.
Since the main purpose of the recrystallization is to decrease the rate of one single identified impurity, 4-[4-(methylsulfinyl)phenyl]-3-phenyl-2(5H)-furanone solubilities were measured in a couple of probable antisolvents identified in Table 9. A reference of 4-[4-(methylsulfinyl)phenyl]-3-phenyl-2(5H)-furanone (CHG P059-038) was synthesized at lab on 8 g for this study, with 98% purity, as per International Patent Application No. WO/2005/120584, which is incorporated herein in its entirety. Table 10 below reports the solubility of 4-[4-(methylsulfinyl)phenyl]-3-phenyl-2(5H)-furanone in various antisolvent candidates. It is noteworthy that 4-[4-(methylsulfinyl)phenyl]-3-phenyl-2(5H)-furanone is very soluble in acetic acid. […] Alcohols can alternatively be employed as antisolvent.

For data set [2] the following is noted: in vivo; cited from earlier work.
For a further data set, the system named is arthritis model. As to conditions: in vivo; cited from earlier work.
Setting [3] is: analog data from software training sets / literature.

Where two headings read alike, the source gives them in different places.

As to `O=C(CBr)c1ccccc1` [LS-188087, 2-bromoacetophenone], the Experimental mutagenicity entry with bacterial mutagenicity was “negative”.
`c1ccc(SCCSc2ccccc2)cc1` [1,2-bis(phenylthio)ethane]: the Experimental mutagenicity entry in the data set on bacterial mutagenicity (setting [3]) is on record as “non-mutagenic”.
On to `CS(=O)(=O)c1ccc(C(=O)CBr)cc1` [LS-394467, 2-Bromo-1-[4-(methylsulfonyl)phenyl]-1-ethanone], for which the Experimental mutagenicity result with bacterial mutagenicity (setting [3]) is “positive”.
Take `C[S+]([O-])c1ccc(C2=C(c3ccccc3)C(=O)OC2)cc1` (stereo not drawn) [A-STG4-01, 4-(4-(methylsulfinyl)phenyl)-3-phenylfuran-2(5H)-one]: the solubility (as a rule, how much of the substance goes into solution per volume) in data set [1] (acetic acid, 30 °C, organic solvent or mixture, Table 10: Acetic acid, 30 °C, read-out: Solubility) is 1540 mg/mL; in data set [1] (acetic acid, organic solvent or mixture, acetic acid, temperature not stated, read-out: Solubility in acetic acid), more than 1000 mg/mL; in data set [1] (ethanol, 30 °C, organic solvent or mixture, Table 10: Ethanol, 30 °C, read-out: Solubility), 28 mg/mL; in data set [1] (isopropanol (IPA), 30 °C, organic solvent or mixture, Table 10: IPA, 30 °C, read-out: Solubility), 0.2 mg/mL; in data set [1] (n-butanol, 30 °C, organic solvent or mixture, Table 10: n-Butanol, 30 °C, read-out: Solubility), 14 mg/mL; in data set [1] (water, 30 °C, water, Table 10: Water, 30 °C, read-out: Solubility), 0.7 mg/mL. Moreover, the “Pharmacokinetic profile compared with rofecoxib” value in data set [2] is recorded as “slightly improved”. Also, the “Pharmacological activity in an arthritis model compared with rofecoxib” value with arthritis model is “better”.
Turning to `N#CCc1ccccc1` [A-RSM2-01, 2-phenylacetonitrile], the Experimental mutagenicity result in the data set on bacterial mutagenicity (setting [3]) is “negative”.
